# A melting point compilation (Tetko et al.; mined from patent text by program, amines drawn as free bases though some values may be those of a salt)
row,Structure (SMILES),melting point [°C]
1,CC(=O)COc1ccc(O)cc1,110 to 112
2,CC(=O)Oc1ccc(C2=NNC(=O)CC2C)cc1 (stereo unspecified),152 to 153
3,CC(C)NC(=O)n1nc(N(C)C)n(C)c1=O,36 to 38
4,COC(=O)CNc1cc(-c2c3ccccc3c(Br)c3sc(C)c(C)c23)cc(Br)c1OC,194 to 198
5,Clc1ccc2c(c1)N=C(NCCc1cccnc1)c1ccccc1N2,195 to 196
6,O=C(Nc1ccc(F)cc1)OC1CCCNC1 (stereo unspecified),147 to 148
7,CC(C)CCCOc1c(-c2ccc(S(C)(=O)=O)cc2)cnn(-c2ccc(F)c(F)c2)c1=O,98 to 99
8,CCOP(=O)(CCN1CCC(N(CCN)S(=O)(=O)c2ccc(Nc3nccc(Nc4ccc(F)cc4)n3)cc2)CC1)OCC,90
9,CC(C)C(C(=O)O)c1ccc(Br)cc1 (stereo unspecified),97 to 98
10,CCCC(=O)C1c2cccc(O)c2C(=O)c2c(O)cccc21,138
11,CCCc1ccc(S(=O)(=O)NN2CCOCC2)cc1,150 to 152
12,NC(=S)c1ccc(Br)cc1,142 to 144
13,Cc1ccc(S(=O)(=O)Nc2ccc3cccc(N4CCN(C)CC4)c3c2)cc1,180
14,O=C(NO)c1ccc(-c2ccc3nnn(Cc4ccc5ncccc5c4)c3n2)cc1F,180 to 182
15,CCOC(=O)COc1ccc(C(=O)c2ccc(O)cc2)c(Cl)c1Cl,127 to 129
16,O=C1c2ccccc2C(O)(c2ccc(F)cc2)C2=NCCCN12 (stereo unspecified),126 to 128
17,COc1cccc2cc(CNCCNC(=O)C34CCC(CC3=O)C4(C)C)oc12 (stereo unspecified),177 to 178
18,OCc1cc(I)ccc1O,105 to 110
19,CNC(=O)c1cc2nc(C(F)(F)F)ccc2c(OC)c1NC(=O)c1cc(C(F)(F)F)nn1-c1ncccc1Cl,209 to 211
20,"O=C1NC(=O)C(=Cc2ccc3c(c2)CCC(Cc2ccccc2)O3)S1 (single isomer, unassigned; (-))",255
21,CSC1=NC2=NC3=C(CNCC3=O)CN2N1,266 to 269

row,Structure (SMILES),melting point [°C]
1,COc1cc(CN2C(C(=O)O)=C(c3ccc4c(c3)OCO4)c3ccccc3S2(=O)=O)cc2c1OCO2,181 to 182
2,COc1cc(N2CCNCC2)c2ncccc2c1,105 to 107
3,CCOC(=O)C=CC(=O)c1ccc(Oc2ccc(Cl)c(Cl)c2)cc1,115 to 117
4,Cc1ccccc1OCC(=O)Nc1c(C)cccc1C(=O)O,133 to 136
5,CCOC(=O)C1=Cc2cccc(NC(=O)CCCCl)c2OCC1,98 to 99
6,CC(C)(C)OC(=O)NCC1CCc2cc(C=O)ccc2C1 (stereo unspecified),115
7,Cc1c(Br)cc(-c2ccc(=O)[nH]n2)c(O)c1Br,> 280
8,OCc1cnoc1-c1ccc(Cl)cc1Cl,76 to 77
9,NC(=O)c1c(Cl)c(-c2ccccc2)n2c1CN(S(=O)(=O)Nc1ccccc1)CC2,207 to 208
10,c1cnc(NC2CCN(CC3CCc4ccccc4O3)CC2)nc1 (stereo unspecified),142
11,CCCCn1c(=O)n(C)c(=O)c2nc(-c3ccc(/C=C/C(=O)O)cc3)[nH]c21,> 300
12,COC(=O)c1cccc(-c2nc(-c3cccc(OC(F)(F)F)c3)cs2)c1,84 to 85
13,CC(=O)c1cc(I)c(O)c(Cl)n1,223 to 224
14,CC(C)Cc1nn(C)c(=O)c2cc(Cc3c(F)cccc3Cl)sc12,85 to 86
15,O=Cc1ccc(OCCCC(=O)O)c(Cl)c1,128 to 131
16,O=S1(=O)NCCc2ccc(Oc3ccccc3)cc21,129 to 132
17,CC(C)Cc1ccc(C(C)C(=O)NCCCNC2=NCCN2)cc1 (stereo unspecified),155 to 168
18,COc1ccc(-c2cc(F)c(F)cc2-c2ccc(S(N)(=O)=O)cc2)cc1OC,157 to 158
19,COc1cccc(NS(=O)(=O)c2cccc(C=CC(=O)NO)c2)c1,137
20,Fc1cc(F)c2c(c1)CCC2n1cc[nH]c1=S (stereo unspecified),212 to 215
